Experimental data from patent publication US12492173B2, “Herbicidal substituted N-tetrazolyl aryl carboxamides” (Bayer Aktiengesellschaft, priority 2019, dated 2025).

Tested on: Cyperus esculentus
Assay: Pre-emergence herbicidal action, CYPES
Assay type: in vivo
Set-up: key: % activity: 100 = plants have died, 0 = like control plants
Conditions: comparative experiment, 20 g of a.i./ha
Outline: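 Pre-emergence soil spray over sandy loam-covered seeds; greenhouse 3 weeks; % visual damage (0% = control, 100% = dead).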

Compound	Herbicidal action against CYPES
CSCc1c(C(F)F)ccc(C(=O)Nc2nnnn2C)c1Cl [Example 1-320]	80

Same assay, conditions: comparative experiment, 80 g of a.i./ha

Compound	Herbicidal action against CYPES
CCSCc1c(C(F)(F)F)ccc(C(=O)Nc2nnnn2C)c1Br [Example 1-383]	100

Tested on: Digitaria sanguinalis
Assay: Pre-emergence herbicidal action, DIGSA
Assay type: in vivo
Conditions: dosage 320 g/ha, scored visually after 3 weeks vs untreated controls (100% = plants have died)
Excerpt: 1. Pre-Emergence Herbicidal Action Against Harmful Plants Seeds of monocotyledonous and dicotyledonous weed plants and crop plants are laid out in sandy loam soil in wood-fiber pots and covered with soil. The compounds of the invention, formulated in the form of wettable powders (WP) or as emulsion concentrates (EC), are then applied to the surface of the covering soil in the form of an aqueous suspension or emulsion at a water application rate equating to 600 to 800 l/ha, with addition of 0.2% wetting agent. After the treatment, the pots are placed in a greenhouse and kept under good growth conditions for the trial plants. The damage to the test plants is scored visually after a test period of 3 weeks by comparison with untreated controls (herbicidal activity in percent (%): 100% activity=the plants have died, 0% activity=like control plants). […] The tables below illustrate, in an exemplary manner, the […] herbicidal action of the compounds according to the invention, the herbicidal activity being stated in percent. [table] In the experiments that follow, herbicidal action of numerous inventive compounds and the known compounds that are structurally closest from D1 (WO 2012/028579 A1) and D2 (WO 2018/202535 A1) were compared under the above-specified conditions by the pre-emergence and post-emergence method. The example numbers given in the tables relate to the compounds disclosed in the respective documents. In addition to the compounds disclosed in D1 and D2, the following compounds V-1 to V-14 that are encompassed by D1 or D2 but are not compounds specified therein were used in the comparative experiments: • V-1: 2-(methylsulfanyl)-3-(methylsulfinyl)-N-(1-methyl-1H-tetrazol-5-yl)-4-(trifluoromethyl)benzamide • V-2: 2-(methylsulfanyl)-3-(methylsulfonyl)-N-(1-methyl-1H-tetrazol-5-yl)-4-(trifluoromethyl)benzamide • V-3: 2,3-bis(ethylsulfanyl)-N-(1-methyl-1H-tetrazol-5-yl)-4-(trifluoromethyl)benzamide • V-4: 2-chloro-3-(ethylsulfanyl)-N-(1-methyl-1H-tetrazol-5-yl)-4-(trifluoromethyl)benzamide • V-5: 2-chloro-4-iodo-3-(methylsulfanyl)-N-(1-methyl-1H-tetrazol-5-yl)benzamide • V-6: 2-chloro-4-iodo-3-(methylsulfinyl)-N-(1-methyl-1H-tetrazol-5-yl)benzamide • V-7: 2-chloro-4-iodo-3-(methylsulfonyl)-N-(1-methyl-1H-tetrazol-5-yl)benzamide • V-8: 2-bromo-3-(methylsulfanyl)-N-(1-methyl-1H-tetrazol-5-yl)-4-(trifluoromethyl)benzamide • V-9: 2-bromo-3-(methylsulfinyl)-N-(1-methyl-1H-tetrazol-5-yl)-4-(trifluoromethyl)benzamide • V-10: 2-bromo-3-(methylsulfonyl)-N-(1-methyl-1H-tetrazol-5-yl)-4-(trifluoromethyl)benzamide • V-11: 2-bromo-3-(ethylsulfanyl)-N-(1-methyl-1H-tetrazol-5-yl)-4-(trifluoromethyl)benzamide • V-12: 2-bromo-3-(ethylsulfinyl)-N-(1-methyl-1H-tetrazol-5-yl)-4-(trifluoromethyl)benzamide • V-13: 2-bromo-3-(ethylsulfonyl)-N-(1-methyl-1-1H-tetrazol-5-yl)-4-(trifluoromethyl)benzamide • V-14: 2-cyclopropyl-3-(ethylsulfanyl)-N-(1-methyl-1H-tetrazol-5-yl)-4-(trifluoromethyl)benzamide Herbicidal Pre-Emergence Action: […]

Compound	herbicidal activity DIGSA
CCn1nnnc1NC(=O)c1ccc(C(F)F)c(C[S+]([O-])CC)c1Cl (stereo not shown) [Example 2-324]	100%
CCn1nnnc1NC(=O)c1ccc(C(F)F)c(C[S+](C)[O-])c1SC (stereo not shown) [Example 2-171]	100%
CCCn1nnnc1NC(=O)c1ccc(C(F)F)c(CS(C)(=O)=O)c1SC [Example 3-172]	100%
Cn1nnnc1NC(=O)c1ccc(C(F)(F)F)c(CS(C)(=O)=O)c1C(F)(F)C(F)(F)F [Example 1-552]	100%
Cn1nnnc1NC(=O)c1ccc(C(F)(F)F)c(CS(=O)(=O)CC2CC2)c1Cl [Example 1-316]	100%
COCC[S+]([O-])Cc1c(C(F)(F)F)ccc(C(=O)Nc2nnnn2C)c1Cl (racemic) [Example 1-306]	100%
CCn1nnnc1NC(=O)c1ccc(C(F)F)c(CSC)c1SC [Example 2-170]	100%
CCCn1nnnc1NC(=O)c1ccc(C(F)F)c(CSC)c1SC [Example 3-170]	100%
CCCn1nnnc1NC(=O)c1ccc(C(F)F)c(C[S+](C)[O-])c1SC (stereo not shown) [Example 3-171]	100%
CSc1c(C(=O)Nc2nnnn2C)ccc(C(F)F)c1C[S+](C)[O-] (stereo not shown) [Example 1-171]	100%
Cn1nnnc1NC(=O)c1ccc(I)c(CS(C)(=O)=O)c1Cl [Example 1-364]	100%
CCn1nnnc1NC(=O)c1ccc(C(F)(F)F)c(C[S+]([O-])CC2CC2)c1Cl (stereo not shown) [Example 2-315]	100%

Tested on: Digitaria sanguinalis
Assay: Post-emergence herbicidal action, DIGSA
Assay type: in vivo
Set-up: key: % herbicidal action: 100 = plants died, 0 = like control
Conditions: Dosage 80 g/ha
Method: (§1) [table] 2. Post-Emergence Herbicidal Action Against Harmful Plants Seeds of monocotyledonous and dicotyledonous weed and crop plants are laid out in sandy loam soil in wood-fiber pots, covered with soil and cultivated in a greenhouse under good growth conditions. 2 to 3 weeks after sowing, the test plants are treated at the one-leaf stage. The compounds of the invention, formulated in the form of wettable powders (WP) or as emulsion concentrates (EC), are then sprayed onto the green parts of the plants in the form of an aqueous suspension or emulsion at a water application rate equating to 600 to 800 l/ha, with addition of 0.2% wetting agent. After the test plants have been left to stand in the greenhouse under optimal growth conditions for about 3 weeks, the action of the preparations is assessed visually in comparison to untreated controls (herbicidal action in percent (%): 100% activity=the plants have died, 0% activity=like control plants). […] The tables below illustrate, in an exemplary manner, the post-emergence herbicidal action of the compounds according to the invention, the herbicidal activity being stated in percent. In the experiments that follow, herbicidal action of numerous inventive compounds and the known compounds that are structurally closest from D1 (WO 2012/028579 A1) and D2 (WO 2018/202535 A1) were compared under the above-specified conditions by the pre-emergence and post-emergence method. The example numbers given in the tables relate to the compounds disclosed in the respective documents. In addition to the compounds disclosed in D1 and D2, the following compounds V-1 to V-14 that are encompassed by D1 or D2 but are not compounds specified therein were used in the comparative experiments: • V-1: 2-(methylsulfanyl)-3-(methylsulfinyl)-N-(1-methyl-1H-tetrazol-5-yl)-4-(trifluoromethyl)benzamide • V-2: 2-(methylsulfanyl)-3-(methylsulfonyl)-N-(1-methyl-1H-tetrazol-5-yl)-4-(trifluoromethyl)benzamide • V-3: 2,3-bis(ethylsulfanyl)-N-(1-methyl-1H-tetrazol-5-yl)-4-(trifluoromethyl)benzamide • V-4: 2-chloro-3-(ethylsulfanyl)-N-(1-methyl-1H-tetrazol-5-yl)-4-(trifluoromethyl)benzamide • V-5: 2-chloro-4-iodo-3-(methylsulfanyl)-N-(1-methyl-1H-tetrazol-5-yl)benzamide • V-6: 2-chloro-4-iodo-3-(methylsulfinyl)-N-(1-methyl-1H-tetrazol-5-yl)benzamide • V-7: 2-chloro-4-iodo-3-(methylsulfonyl)-N-(1-methyl-1H-tetrazol-5-yl)benzamide • V-8: 2-bromo-3-(methylsulfanyl)-N-(1-methyl-1H-tetrazol-5-yl)-4-(trifluoromethyl)benzamide • V-9: 2-bromo-3-(methylsulfinyl)-N-(1-methyl-1H-tetrazol-5-yl)-4-(trifluoromethyl)benzamide • V-10: 2-bromo-3-(methylsulfonyl)-N-(1-methyl-1H-tetrazol-5-yl)-4-(trifluoromethyl)benzamide • V-11: 2-bromo-3-(ethylsulfanyl)-N-(1-methyl-1H-tetrazol-5-yl)-4-(trifluoromethyl)benzamide • V-12: 2-bromo-3-(ethylsulfinyl)-N-(1-methyl-1H-tetrazol-5-yl)-4-(trifluoromethyl)benzamide • V-13: 2-bromo-3-(ethylsulfonyl)-N-(1-methyl-1-1H-tetrazol-5-yl)-4-(trifluoromethyl)benzamide • V-14: 2-cyclopropyl-3-(ethylsulfanyl)-N-(1-methyl-1H-tetrazol-5-yl)-4-(trifluoromethyl)benzamide Herbicidal Pre-Emergence Action: […]

Compound	herbicidal action DIGSA
CCn1nnnc1NC(=O)c1ccc(C(F)F)c(C[S+](C)[O-])c1SC (stereo not shown) [Example 2-171]	90
CCCn1nnnc1NC(=O)c1ccc(C(F)F)c(CS(C)(=O)=O)c1SC [Example 3-172]	90
Cn1nnnc1NC(=O)c1ccc(C(F)(F)F)c(CS(C)(=O)=O)c1C(F)(F)C(F)(F)F [Example 1-552]	90
Cn1nnnc1NC(=O)c1ccc(C(F)(F)F)c(CS(=O)(=O)CC2CC2)c1Cl [Example 1-316]	100
COCC[S+]([O-])Cc1c(C(F)(F)F)ccc(C(=O)Nc2nnnn2C)c1Cl (racemic) [Example 1-306]	100
CCn1nnnc1NC(=O)c1ccc(C(F)F)c(CSC)c1SC [Example 2-170]	100
CCCn1nnnc1NC(=O)c1ccc(C(F)F)c(CSC)c1SC [Example 3-170]	100
CCCn1nnnc1NC(=O)c1ccc(C(F)F)c(C[S+](C)[O-])c1SC (stereo not shown) [Example 3-171]	90
CSc1c(C(=O)Nc2nnnn2C)ccc(C(F)F)c1C[S+](C)[O-] (stereo not shown) [Example 1-171]	100
Cn1nnnc1NC(=O)c1ccc(I)c(CS(C)(=O)=O)c1Cl [Example 1-364]	100
CCn1nnnc1NC(=O)c1ccc(C(F)(F)F)c(C[S+]([O-])CC2CC2)c1Cl (stereo not shown) [Example 2-315]	100

Same assay, conditions: post-emergence, dosage 80 g/ha

Compound	herbicidal action DIGSA
CCn1nnnc1NC(=O)c1ccc(C(F)F)c(C[S+]([O-])CC)c1Cl (stereo not shown) [Example 2-324]	100%

Tested on: Hordeum murinum
Assay: Post-emergence herbicidal action, HORMU
Assay type: in vivo
Set-up: key: % herbicidal action: 100 = plants died, 0 = like control
Conditions: Dosage 80 g/ha
Method: as §1

Compound	herbicidal action HORMU
Cn1nnnc1NC(=O)c1ccc(C(F)(F)F)c(CSCC(F)(F)F)c1Cl [Example 1-311]	100
CCCn1nnnc1NC(=O)c1ccc(C(F)(F)F)c(CSCC(F)(F)F)c1Cl [Example 3-311]	90
CCCn1nnnc1NC(=O)c1ccc(C(F)F)c(CS(=O)(=O)CC)c1Cl [Example 3-325]	90
CCn1nnnc1NC(=O)c1ccc(C(F)(F)F)c(CSCC(F)(F)F)c1Cl [Example 2-311]	80
CCn1nnnc1NC(=O)c1ccc(I)c(C[S+](C)[O-])c1Cl (stereo not shown) [Example 2-363]	90
CCCn1nnnc1NC(=O)c1ccc(C(F)(F)F)c(CS(C)(=O)=O)c1SC [Example 3-163]	80

Same assay, conditions: post-emergence, dosage 80 g/ha

Compound	herbicidal action HORMU
CCn1nnnc1NC(=O)c1ccc(C(F)F)c(C[S+]([O-])CC)c1Cl (stereo not shown) [Example 2-324]	90%
CCCn1nnnc1NC(=O)c1ccc(C(F)(F)F)c(CSCC2CC2)c1Cl [Example 3-314]	90%

Tested on: Lolium multiflorum
Assay: Post-emergence herbicidal action, LOLMU
Assay type: in vivo
Set-up: key: % herbicidal action: 100 = plants died, 0 = like control
Conditions: Dosage 80 g/ha
Method: as §1

Compound	herbicidal action LOLMU
CCS(=O)(=O)Cc1c(C(F)F)ccc(C(=O)Nc2nnnn2C)c1Cl [Example 1-325]	90
CCn1nnnc1NC(=O)c1ccc(C(F)F)c(CSC)c1Cl [Example 2-320]	80
CSCc1c(C(F)F)ccc(C(=O)Nc2nnnn2C)c1Cl [Example 1-320]	80

Same assay, conditions: post-emergence, dosage 80 g/ha

Compound	herbicidal action LOLMU
CCSCc1c(C(F)(F)F)ccc(C(=O)Nc2nnnn2CC)c1C [Example 2-86]	90%
CCn1nnnc1NC(=O)c1ccc(C(F)(F)F)c(C[S+]([O-])CC)c1Br (stereo not shown) [Example 2-384]	80%
CCSCc1c(C(F)F)ccc(C(=O)Nc2nnnn2C)c1Cl [Example 1-323]	90%
Cn1nnnc1NC(=O)c1ccc(C(F)F)c(CS(C)(=O)=O)c1Cl [Example 1-322]	90%
CCn1nnnc1NC(=O)c1ccc(C(F)F)c(CS(C)(=O)=O)c1Cl [Example 2-322]	80%
CCn1nnnc1NC(=O)c1ccc(C(F)(F)F)c(CSC)c1Cl [Example 2-296]	90%
CCn1nnnc1NC(=O)c1ccc(C(F)(F)F)c(C[S+](C)[O-])c1Cl (stereo not shown) [Example 2-297]	90%
CCSCc1c(C(F)(F)F)ccc(C(=O)Nc2nnnn2CC)c1Cl [Example 2-299]	90%
CCSCc1c(C(F)F)ccc(C(=O)Nc2nnnn2CC)c1Cl [Example 2-323]	80%
CSCc1c(C(F)(F)F)ccc(C(=O)Nc2nnnn2C)c1C [Example 1-83]	80%
CSCc1c(Cl)ccc(C(=O)Nc2nnnn2C)c1Cl [Example 1-559]	100%
CCSCc1c(C(F)(F)F)ccc(C(=O)Nc2nnnn2C)c1Br [Example 1-383]	90%
